Measurements: patent publication US12679848B2, “Plasma kallikrein inhibitors” (Merck Sharp & Dohme LLC, priority 2020, dated 2026)

Tests used:
[1] = target: T1, Human plasma kallikrein (Homo sapiens, UniProt P03952); test: Plasma Kallikrein Assay; assay type: biochemical; conditions: purified Human plasma kallikrein 0.5 nM, substrate Acetyl-K-P-R-AFC, HEPES pH 7.4; read-out: PKal IC50
T1 construct: yields a heavy chain (371 amino acids) and a light chain (248 amino acids); The active site of plasma kallikrein is contained in the light chain; purchased Enzyme Research Laboratories
Description: (§1) The effectiveness of a compound of the present invention as an inhibitor of plasma kallikrein can be determined using a relevant purified serine protease, and an appropriate synthetic substrate. The rate of hydrolysis of the chromogenic or fluorogenic substrate by the relevant serine protease was measured both in the absence and presence of compounds of the present invention. Assays were conducted at rt or at 37° C. […] A decrease in the rate of fluorescence change in the presence of inhibitor is indicative of enzyme inhibition. Such methods are known to one skilled in the art. The results of this assay are expressed as the half-maximal inhibitory concentrations (IC50), or the inhibitory constant, Ki.
Plasma kallikrein determinations were made in 50 mM HEPES buffer at pH 7.4 containing 150 mM NaCl, 5 mM CaCl2), and 0.1% PEG 8000 (polyethylene glycol; Fisher Scientific). Determinations were made using purified Human plasma kallikrein at a final concentration of 0.5 nM (Enzyme Research Laboratories) and the synthetic substrate, Acetyl-K—P—R-AFC (Sigma #C6608) at a concentration of […].
Times required to achieve equilibration between enzyme and inhibitor were determined in control experiments. […] IC50 was determined by inflection point from a four parameter logistic curve fit. Ki was calculated using the Cheng Prusoff equation, Ki=IC50/[…](1+([S]/Km)).

[2] = target: human factor XIa (Homo sapiens, UniProt P03951); test: Factor XIa Assay; assay type: biochemical; conditions: human factor XIa 0.04 nM, substrate GPR-AFC, 30 min pre-incubation, 25° C., pH 7.4; read-out: FXIa IC50
Description: as §1, with “Coagulation factor XIa” for “plasma kallikrein”
Compounds were pre-incubated for 30 min at 25° C. with human (0.04 nM) factor XIa in 50 mM HEPES buffer with 150 mM sodium chloride, 5 mM calcium chloride, 0.1% PEG 8000, pH 7.4. factor XIa enzymatic activity was determined by addition of the substrate glycine-proline-arginine-7-amido-4-trifluoromethylcoumarin (GPR-AFC) and measurement of the fluorescence at 400/505 nm after a 60 min incubation at 25° C. The % inhibition for each data point was calculated from the data and analyzed using the log (inhibitor) vs. response four parameters equation to determine the half-maximal inhibitory concentrations (IC50). The IC50 were converted to equilibrium inhibitory constants (Ki) using the Cheng-Prusoff equation.

Chain of human factor XIa (P03951 388-625 limits assumed): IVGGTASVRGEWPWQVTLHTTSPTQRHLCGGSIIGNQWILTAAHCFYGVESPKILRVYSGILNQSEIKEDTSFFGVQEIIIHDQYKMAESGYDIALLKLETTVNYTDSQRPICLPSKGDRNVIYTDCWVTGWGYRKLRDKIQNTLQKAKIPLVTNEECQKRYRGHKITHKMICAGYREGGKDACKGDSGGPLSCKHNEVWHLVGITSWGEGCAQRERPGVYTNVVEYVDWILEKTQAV
Chain of human factor XIa (P03951 19-387 partner limits assumed): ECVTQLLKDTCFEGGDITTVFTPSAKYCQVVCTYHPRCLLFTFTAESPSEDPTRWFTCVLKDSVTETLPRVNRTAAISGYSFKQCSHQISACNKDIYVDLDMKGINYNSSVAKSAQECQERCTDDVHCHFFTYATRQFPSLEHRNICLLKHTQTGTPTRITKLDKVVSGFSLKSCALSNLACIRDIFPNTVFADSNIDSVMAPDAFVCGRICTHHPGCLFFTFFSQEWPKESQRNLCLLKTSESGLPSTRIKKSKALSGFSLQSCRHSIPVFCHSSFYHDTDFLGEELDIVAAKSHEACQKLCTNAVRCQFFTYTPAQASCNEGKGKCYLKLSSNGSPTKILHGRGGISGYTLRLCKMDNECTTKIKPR
T1 sequence (P03952 391-638 limits assumed): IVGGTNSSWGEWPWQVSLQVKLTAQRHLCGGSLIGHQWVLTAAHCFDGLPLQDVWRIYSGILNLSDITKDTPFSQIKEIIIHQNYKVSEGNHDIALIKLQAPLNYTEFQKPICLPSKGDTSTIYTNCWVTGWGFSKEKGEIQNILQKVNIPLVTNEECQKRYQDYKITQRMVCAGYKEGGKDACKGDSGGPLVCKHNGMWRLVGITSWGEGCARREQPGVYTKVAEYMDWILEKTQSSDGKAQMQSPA
T1 sequence (P03952 20-390 partner limits assumed): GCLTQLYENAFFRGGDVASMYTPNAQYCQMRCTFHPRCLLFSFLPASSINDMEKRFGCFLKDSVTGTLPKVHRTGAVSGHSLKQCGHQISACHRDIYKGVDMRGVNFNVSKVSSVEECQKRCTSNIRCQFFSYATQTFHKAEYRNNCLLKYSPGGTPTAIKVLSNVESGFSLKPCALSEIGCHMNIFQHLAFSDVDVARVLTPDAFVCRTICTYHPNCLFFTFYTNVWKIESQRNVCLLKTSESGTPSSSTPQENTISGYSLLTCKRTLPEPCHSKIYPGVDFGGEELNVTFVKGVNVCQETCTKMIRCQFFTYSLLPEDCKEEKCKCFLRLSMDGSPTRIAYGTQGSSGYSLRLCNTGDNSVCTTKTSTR

SMILES | IC50 [1] [nM] | IC50 [2] [nM]
CC(C1CC1)(n1ncc(C(=O)N2CCC[C@@]3(C2)OC(=O)Nc2ccc(Cl)c(F)c23)c1N)C(F)(F)F (single isomer, unassigned) [Example 126, (R)-1'-(5-Amino-1-((R or S)-2-cyclopropyl-1,1,1-trifluoropropan-2-y1)-1H-pyrazole-4-carbonyl)-6-chloro-5-fluorospiro[benzo[d][1,3]oxazine-4,3'-piperidin]-2(1H)-one] | 2.2 | 459
CC(C1CC1)(n1ncc(C(=O)N2CCC[C@@]3(C2)OC(=O)Nc2ccc(Cl)c(F)c23)c1N)C(F)(F)F (single isomer, unassigned) [Example 127, (R)-1'-(5-Amino-1-((S or R)-2-cyclopropyl-1,1,1-trifluoropropan-2-y1)-1H-pyrazole-4-carbonyl)-6-chloro-5-fluorospiro[benzo[d][1,3]oxazine-4,3'-piperidin]-2(1H)-one] | 6.8 | 1020
COCC(C)(n1ncc(C(=O)N2CCC[C@@]3(C2)OC(=O)Nc2ccc(Cl)c(F)c23)c1N)C(F)(F)F (single isomer, unassigned) [Example 128, (R)-1'-(5-Amino-1-((R or S)-1,1,1-trifluoro-3-methoxy-2-methylpropan-2-y1)-1H-pyrazole-4-carbonyl)-6-chloro-5-fluorospiro[benzo[d][1,3]oxazine-4,3'-piperidin]-2(1H)-one] | 4.7 | 973
COCC(C)(n1ncc(C(=O)N2CCC[C@@]3(C2)OC(=O)Nc2ccc(Cl)c(F)c23)c1N)C(F)(F)F (single isomer, unassigned) [Example 129] | 6.5 | 898
CCC(n1ncc(C(=O)N2CC(C)(C)C[C@@]3(C2)OC(=O)Nc2ccc(Cl)c(F)c23)c1N)C(F)(F)F (single isomer, unassigned) [Example 130, (R)-1'-(5-Amino-1-((R or S)-1,1,1-trifluorobutan-2-y1)-1H-pyrazole-4-carbonyl)-6-chloro-5-fluoro-5',5'-dimethylspiro[benzo[d][1,3]oxazine-4,3'-piperidin]-2(1H)-one] | 1.6 | 8
CCC(n1ncc(C(=O)N2CC(C)(C)C[C@@]3(C2)OC(=O)Nc2ccc(Cl)c(F)c23)c1N)C(F)(F)F (single isomer, unassigned) [Example 131, (R)-1'-(5-Amino-1-((S or R)-1,1,1-trifluorobutan-2-y1)-1H-pyrazole-4-carbonyl)-6-chloro-5-fluoro-5',5'-dimethylspiro[benzo[d][1,3]oxazine-4,3'-piperidin]-2(1H)-one] | 1.2 | 70
Nc1c(C(=O)N2CCC[C@@]3(C2)OC(=O)Nc2ccc(Cl)c(F)c23)cnn1CC(F)(F)F [Example 1, (R)-1′-(5-Amino-1-(2,2,2-trifluoroethyl)-1H-pyrazole-4-carbonyl)-6-chloro-5-fluorospiro[benzo[d][1,3]oxazine-4,3′-piperidin]-2(1H)-one] | 11.2 | 408
CC1(C)CN(C(=O)c2cnn(CC(F)(F)F)c2N)C[C@]2(C1)OC(=O)Nc1ccc(Cl)c(F)c12 [Example 2, (R)-1′-(5-Amino-1-(2,2,2-trifluoroethyl)-1H-pyrazole-4-carbonyl)-6-chloro-5-fluoro-5′,5′-dimethylspiro[benzo[d][1,3]oxazine-4,3′-piperidin]-2(1H)-one] | 2.7 | 211
Nc1c(C(=O)N2CCC[C@@]3(C2)OC(=O)Nc2ccc(Cl)c(F)c23)cnn1Cc1cccc(C(F)(F)F)c1 [Example 5, (R)-1'-(5-Amino-1-(3-(trifluoromethyl)benzy1)-1H-pyrazole-4-carbonyl)-6-chloro-5-fluorospiro[benzo[d][1,3]oxazine-4,3'-piperidin]-2(1H)-one] | 1.7 | 726
Nc1c(C(=O)N2CCC[C@@]3(C2)OC(=O)Nc2ccc(Cl)c(F)c23)cnn1Cc1cccc(Cl)c1 [Example 6, (R)-1'-(5-Amino-1-(3-chlorobenzyl)-1H-pyrazole-4-carbonyl)-6-chloro-5-fluorospiro[benzo[d][1,3]oxazine-4,3'-piperidin]-2(1H)-one] | 0.5 | 177
Cc1ccc(Cn2ncc(C(=O)N3CCC[C@@]4(C3)OC(=O)Nc3ccc(Cl)c(F)c34)c2N)cc1 [Example 7, (R)-1'-(5-Amino-1-(4-methylbenzyl)-1H-pyrazole-4-carbonyl)-6-chloro-5-fluorospiro[benzo[d][1,3]oxazine-4,3'-piperidin]-2(1H)-one] | 0.5 | 201
Nc1c(C(=O)N2CCC[C@@]3(C2)OC(=O)Nc2ccc(Cl)c(F)c23)cnn1Cc1cccc(F)c1 [Example 9, (R)-1'-(5-Amino-1-(3-fluorobenzyl)-1H-pyrazole-4-carbonyl)-6-chloro-5-fluorospiro[benzo[d][1,3]oxazine-4,3'-piperidin]-2(1H)-one] | 0.9 | 252
CC1(C)CN(C(=O)c2cnn(Cc3ccccc3)c2N)C[C@]2(C1)OC(=O)Nc1ccc(Cl)c(F)c12 [Example 10, (R)-1'-(5-Amino-1-benzyl-1H-pyrazole-4-carbonyl)-6-chloro-5-fluoro-5',5'-dimethylspiro[benzo[d][1,3]oxazine-4,3'-piperidin]-2(1H)-one] | 1.3 | 122
Cc1noc(C)c1Cn1ncc(C(=O)N2CCC[C@@]3(C2)OC(=O)Nc2ccc(Cl)c(F)c23)c1N [Example 11, (R)-1'-(5-Amino-1-((3,5-dimethylisoxazol-4-yl)methyl)-1H-pyrazole-4-carbonyl)-6-chloro-5-fluorospiro[benzo[d][1,3]oxazine-4,3'-piperidin]-2(1H)-one] | 1.7 | 438
Nc1c(C(=O)N2CCC[C@@]3(C2)OC(=O)Nc2ccc(Cl)c(F)c23)cnn1CC1CCOCC1 [Example 12, (R)-1'-(5-Amino-1-((tetrahydro-2H-pyran-4-yl)methyl)-1H-pyrazole-4-carbonyl)-6-chloro-5-fluorospiro[benzo[d][1,3]oxazine-4,3'-piperidin]-2(1H)-one] | 8.1 | 476
Nc1c(C(=O)N2CCC[C@@]3(C2)OC(=O)Nc2ccc(Cl)c(F)c23)cnn1CC1CC1 [Example 13, (R)-1'-(5-Amino-1-(cyclopropylmethyl)-1H-pyrazole-4-carbonyl)-6-chloro-5-fluorospiro[benzo[d][1,3]oxazine-4,3'-piperidin]-2(1H)-one] | 7.2 | 582
Nc1c(C(=O)N2CCC[C@@]3(C2)OC(=O)Nc2ccc(Cl)c(F)c23)cnn1CCN1CCOCC1 [Example 14, (R)-1'-(5-Amino-1-(2-morpholinoethyl)-1H-pyrazole-4-carbonyl)-6-chloro-5-fluorospiro[benzo[d][1,3]oxazine-4,3'-piperidin]-2(1H)-one] | 42.8 | 3180
Nc1c(C(=O)N2CCC[C@@]3(C2)OC(=O)Nc2ccc(Cl)c(F)c23)cnn1CC(F)F [Example 15, (R)-1'-(5-Amino-1-(2,2-difluoroethyl)-1H-pyrazole-4-carbonyl)-6-chloro-5-fluorospiro[benzo[d][1,3]oxazine-4,3'-piperidin]-2(1H)-one] | 16.9 | 882
Nc1c(C(=O)N2CCC[C@@]3(C2)OC(=O)Nc2ccc(Cl)c(F)c23)cnn1CCc1ccccc1 [Example 16, (R)-1'-(5-Amino-1-phenethyl-1H-pyrazole-4-carbonyl)-6-chloro-5-fluorospiro[benzo[d][1,3]oxazine-4,3'-piperidin]-2(1H)-one] | 4.1 | 441
CC(C)Cn1ncc(C(=O)N2CCC[C@@]3(C2)OC(=O)Nc2ccc(Cl)c(F)c23)c1N [Example 17, (R)-1'-(5-Amino-1-isobutyl-1H-pyrazole-4-carbonyl)-6-chloro-5-fluorospiro[benzo[d][1,3]oxazine-4,3'-piperidin]-2(1H)-one] | 8 | 328
Nc1c(C(=O)N2CCC[C@@]3(C2)OC(=O)Nc2ccc(Cl)c(F)c23)cnn1C1CCOCC1 [Example 18, (R)-1'-(5-Amino-1-(tetrahydro-2H-pyran-4-y1)-1H-pyrazole-4-carbonyl)-6-chloro-5-fluorospiro[benzo[d][1,3]oxazine-4,3'-piperidin]-2(1H)-one] | 39.1 | 1650
